The source of these data is patent US4977276A, “Heteroarotinoids as anticancer agents” (The Board of Regents for the Oklahoma Agricultural and …, priority 1989, dated 1990).

Assay [1] has as its system HT-29 (colon adenocarcinoma). As to the kind of experiment: Human Tumor Cell Line Bioassay (HTCL), HT-29. It counts as cell-based. As to conditions: HT-29, MTT, O.D. 50% of control. The procedure: (§1) The Human Tumor Cell Line Bioassay (HTCL) has been conducted in a manner similar to the procedure described by Alley and co-workers (Cancer Research 1988, 48, 589-601). A panel of 4 tumor cell lines were grown in microliter plates and various concentrations of the test compounds were added to the wells. After 4 days, the number of viable cells were measured in terms of production of formazin after incubation with MTT [3-(4,5-dimethylthiazol-2-yl)-2,5-diphenyltetrazolium bromide]. Formazin production is directly proportional to the viable cell number/well and can be measured spectrophotometrically after solubilization.
The cell lines used in the HTCL assay were A-549 (lung adenocarcinoma), HT-29 (colon adenocarcinoma), MCF-7 (breast adenocarcinoma), and RPMI-7951 (melanoma). […] After detaching from the flask, the cells were resuspended in their appropriate medium, counted on a Coulter Counter (ZBI), and an aliquot was transferred to new T-25 flasks. […] The plates were read on a Dynatech 700 plate reader at 540 nm, and the data were collected on an IBM PC. The data were graphed and the ED50 was determined from the graph.

Assay [2] deals with RPMI-7951 (melanoma). As to the kind of experiment: Human Tumor Cell Line Bioassay (HTCL), RPMI-7951. Particulars: RPMI-7951, MTT, O.D. 50% of control; for IC50: Homo sapiens, read-out: ED50 Values. Type of assay: cell-based. Also noted: key to ED50 Values: NDT: No detectable toxicity. The procedure:
as §1
The cell lines used in the HTCL assay were A-549 (lung adenocarcinoma), HT-29 (colon adenocarcinoma), MCF-7 (breast adenocarcinoma), and RPMI-7951 (melanoma). With the exception of HT-29, these cells have been adopted to grow in B10 medium which consists of Eagle's Minimum Essential Medium supplemented with 1.5× the essential amino acids, 2× the non-essential amino acids, 1.5× vitamins, 1× L-glutamine, 10% calf bovine serum (CBS), and 1× antibiotic solution (PSF) consisting of 50 U/mL of penicillin, 50 ug/mL of streptomycin sulfate, and 50 ug/mL of amphotericin B. HT-29 cells were grown in McCoy's 5A medium supplemented with 10% CBS and 1× PSF. Stock cultures of cells were routinely grown in 25 cm^2 flasks (T-25) and passaged on a weekly basis. Cells were passaged by washing twice with phosphate buffered saline (PBS) and once with a 0.005% trypsin--0.01% EDTA solution. Trypsin-EDTA solution was added and the flask was allowed to incubate for 2-5 minutes until the cells were detached. After detaching from the flask, the cells were resuspended in their appropriate medium, counted on a Coulter Counter (ZBI), and an aliquot was transferred to new T-25 flasks. The remaining cells were used to set up the assay in 96 well microliter plates. Either 3,000 (HT-29, MCF-7) or 2,000 (A-549, RPMI-7951) cells were added to the wells in a 96-well microliter plate in 0.2 mL of medium (Day 1). On Day 2, the compounds were resuspended at 1 or 2 mg/mL in acetone, and the compounds were serially diluted 10 or 5 fold in PBS and 20 uL of each dilution starting at 100 or 200 ug/mL was added to 4 wells of the microliter plate. Doxyrubicin was used as a positive control compound. On Day 7, 20 uL of MTT (2 mg/mL) was added to each of the wells. The plates were then incubated at 37° C. for 4 hours. After incubation, the medium and MTT were removed by aspiration and 100 uL of DMSO was added to solubilize the formazin product. The plates were read on a Dynatech 700 plate reader at 540 nm, and the data were collected on an IBM PC. The data were graphed and the ED50 was determined from the graph.

The test system of assay [3] is ornithine decarboxylase (ODC). Description: suppression of TPA induced ornithine decarboxylase (ODC) activity in mouse skin. It counts as in vivo. Particulars: for % of Inhibition as Compared to Control: second table (60 min). The procedure:
In the ODC assay, either 13-cis-retinoic acid or trans-retinoic acid was employed. The following Table summarizes the result of the ODC assays.
Epidermus was separated, homogenized, and centrifuged at 30,000× g. Soluble epidermal ODC activity was assayed. The retinoids were evaluated in three independent experiments (3 groups of mice with 3 mice per group) and the results from the experiments were normalized (% inhibition) for comparison. […] Which standard is used appears to be relatively unimportant for determining activity in the assay, but the data presented in the Table identifies the standard for sake of clarity and accuracy of presentation. Thus, the presence of the heteroatom in these arotinoids has not eliminated biological activity. […] Consequently, the nature of the terminus group is also important.

Assay [4] deals with HL-60 cells. As to the kind of experiment: induction of differentiation of human HL-60 promyelocytic cells (NBT reduction). Type of assay: cell-based. As to conditions: HL-60, 96 h, read-out: concentration of retinoid effective in achieving a half-maximal response (ED50). Here is the method: These mature cells, unlike the uninduced HL-60, produced superoxide anion when simulated with an appropriate agent, such as TPA. The ability of the individual cells to produce superoxide can be measured by incubating cells with the water-soluble yellow dye, nitroblue tetrazolium (NBT). NBT is reduced to a water-insoluble blue-black formazan by superoxide. This formazan precipitate is associated with those cells that produce superoxide. Thus, the percentage of cells in a population that produce superoxide (NBT-positive cells) can be enumerated under a light microscope.
After incubation for 4 days at 37° C. in a humidified atmosphere of 5% CO2 and air, the capacity of the cells to reduce NBT was determined. […] This cell suspension was mixed with an equal volume of phosphate buffered saline containing 1 mg of NBT/mL and […]. The reaction mixture was incubated at 37° C. for 25 minutes, and the reaction was terminated by cooling in an ice water bath. Cytospin slides were prepared from a portion of this reaction mixture and stained with Wright-Giemsa. A minimum of 200 cells were counted under light microscopy to determine the percentage of cells with cell-associated formazan.

Where [5] appears, read: retinoid dose 17 nmol + TPA, first table, acetone + TPA control 0.90.
Where [6] appears, read: retinoid dose 34 nmol + TPA, second table, acetone + TPA control 1.67.
[7] abbreviates: with trans-retinoic acid as the standard.
Where [8] appears, read: incubation 4 days at 37° C., NBT-positive cells.
Setting [9] is: in comparison with 13-cis-retinoic acid as the standard, or among the tested compounds.

Molecules are shown by their SMILES. In brackets after ≈: the same amount, converted by molar mass. Entries after “also recorded” stand apart in the source; their conditions may differ. Read-outs that look alike come from different tables or passages of the source.

For the compound `COc1cccc2c1C(=O)c1c(O)c3c(c(O)c1C2=O)C[C@@](O)(C(=O)CO)C[C@@H]3O[C@H]1C[C@H](N)[C@H](O)[C@H](C)O1` [Doxyrubicin], the “ED50 Values” in assay [1] (5760 min) came out at 0.6 µg/mL (≈ 1.1 µM); in assay [2] (5760 min), 0.1 µg/mL (≈ 0.184 µM). For the same compound, the IC50 in assay [1] (Homo sapiens, HT-29, 96 h, read-out: ED50 Values) stood at 0.3 µg/mL (≈ 0.552 µM); in assay [2] (RPMI-7951, 96 h), 0.2 µg/mL (≈ 0.368 µM).
For the compound `CC1=C(/C=C/C(C)=C/C=C/C(C)=C\C(=O)O)C(C)(C)CCC1` [13-cis-retinoic acid, reference compound], the “ODC Activity” value in assay [3] (setting [5]) is given as 0.1 ± 0.01 nmol CO2 /30 min/mg protein; in assay [3] (retinoid dose 17 nmol + TPA, second table, acetone + TPA control 1.67) it was 0.14 ± 0.04 nmol CO2 /60 min/mg protein. The “% of Inhibition as Compared to Control” value in assay [3] (retinoid dose 17 nmol + TPA) was 92%.
As for `CC(/C=C/C=C(\C)c1ccc2c(c1)C(C)(C)CCO2)=C\C(=O)O` [(47), 7-[4,4-Dimethylchroman-6-yl]-3,7-dimethyl-2,4,6-heptatrienoic acid], the “% of Inhibition as Compared to Control” value in assay [3] (retinoid dose 34 nmol + TPA) is reported as 74%. Further, the “ODC Activity” value in assay [3] (setting [6]) is 1.4 ± 0.2 nmol CO2 /60 min/mg protein. The “activity in the ODC assay in words” value in assay [3] (setting [7]) is reported as “slightly less active than the standard”. In addition, in assay [4] (setting [8]), the EC50 worked out at 200 nM.
`CC1=C(/C=C/C(C)=C/C=C/C(C)=C/C(=O)O)C(C)(C)CCC1` [trans-retinoic acid]: the EC50 in assay [4] is 41 nM. Further, in assay [2] (96 h), the IC50 was 30 µg/mL (≈ 99.9 µM). Further, the “ED50 Values” in assay [2] is “NDT”.
For `CCOC(=O)/C=C(C)/C=C/C=C(\C)c1ccc2c(c1)C(C)(C)CCS2` [(39), Ethyl 7-[4,4-Dimethylthiochroman-6-yl]-3,7-dimethyl-2,4,6-heptatrienoate], the “activity in the ODC assay in words” value in assay [3] (setting [9]) is recorded as “strongest activity; also recorded: more active”. Moreover, the “ODC Activity” value in assay [3] (setting [5]) is listed as 0.0 ± 0.0 nmol CO2 /30 min/mg protein.
For `CC(/C=C/C=C(\C)c1ccc2c(c1)C(C)(C)CCS2)=C\C(=O)OCCN1C(=O)c2ccccc2C1=O` [(40), (2-Phthalimide-ethyl) 7-[4,4-Dimethylthiochroman-6-yl]-3-7-dimethyl-2,4,6-heptatrienoate], in assay [3] (retinoid dose 34 nmol + TPA), the “% of Inhibition as Compared to Control” value came to 42%. Moreover, in assay [3] (setting [6]), the “ODC Activity” value is 0.97 ± 0.13 nmol CO2 /60 min/mg protein. Also, the “activity in the ODC assay in words” value in assay [3] (setting [7]) is recorded as “less active compared to the same control”.
Consider `CC(/C=C/C=C(\C)c1ccc2c(c1)C(C)(C)CCS2)=C\C(=O)O` [(38), 7-[4.4-Dimethylthiochroman-6-yl]-3,7-dimethyl-2,4,6-heptatrienoic acid], for which the “activity in the ODC assay in words” value in assay [3] (setting [9]) is recorded as “essentially equivalent in activity to the standard”. Also, the “ODC Activity” value in assay [3] (setting [5]) is 0.1 ± 0.01 nmol CO2 /30 min/mg protein. Further, the EC50 in assay [4] (setting [8]) worked out at 72 nM.
